Measured values published in a melting point compilation (Tetko et al.; mined from patent text by program, amines drawn as free bases though some values may be those of a salt).

Row | SMILES | melting point [°C]
1 | Cc1cc(C)c(-c2cn(C)c3nc(NC(=O)N(C)C)n(C)c(=O)c23)c(C)c1 | 221 to 223
2 | CCOC(=O)C(NC(=O)OC(C)(C)C)=C1CSCSC1 | 154
3 | CNc1c(CC(C)O)cc([N+](=O)[O-])cc1[N+](=O)[O-] (centres undefined) | 132
4 | Cc1cc(Br)cc(-c2ccc3c(c2)C(C)(C)OC(=O)N3)c1 | 231 to 233
5 | O=C(NC1CCCCC1)NC1(N=NC2(NC(=O)NC3CCCCC3)CCCCC2)CCCCC1 | 105 to 109
6 | O=C1Nc2c(C(F)(F)F)cccc2C1(O)c1cc(Cl)ccc1O (centres undefined) | 205 to 207
7 | CNC(=O)c1ccccc1Sc1ccc(F)cc1[N+](=O)[O-] | 111 to 113
8 | O=C1N[C@H]2[C@H](O)[C@H](O)[C@@H](O)[C@H](CO)[C@@H]2c2cc3c(cc21)OCO3 | > 200
9 | CC(C)OC(=O)C1C(=S)NCC1C (centres undefined) | 41 to 44
10 | CONS(=O)(=O)c1cc(Cl)c(Cl)cc1Cl | 163 to 166
11 | CN(CCNCc1ccccc1)Cc1ccccc1 | 83 to 84
12 | CCSc1c(C)nn(-c2c(Cl)cc(C(F)(F)F)cc2Cl)c1N | 117
13 | COC(=O)c1ccc(OC)c(NC(=O)C[C@H]2O[C@H](c3cccc(OC)c3OC)c3cc(Cl)ccc3N(CC(C)(C)COC(C)=O)C2=O)c1 | 138 to 140
14 | N#Cc1ccc(NC(=O)CCc2ccc(O)cc2)cc1 | 169 to 172
15 | O=C1CC(/C=C/c2ccncc2)=Nc2ccccc2N1Cc1ccccc1 | 208 to 210
16 | COC(=O)c1ccc(F)c2c1OCC=C2 | 65 to 67
17 | CC(Oc1ccc(Oc2cnc3cc(Cl)ccc3n2)cc1)C(=O)Nc1ccc(C(F)(F)F)cc1 (centres undefined) | 176 to 178
18 | Cc1cccc(Nc2nc(N)ncc2S(=O)(=O)NC(C)(C)C)c1 | 174 to 178
19 | O=c1[nH]nc(-c2cccc(Cl)c2)c2ncccc12 | 268 to 269
20 | Oc1ccc2c(c1)C(Cc1ccnc(F)c1)(Cc1ccnc(F)c1)c1ccccc1-2 | 200 to 201
21 | CCCc1nc(SC(F)F)c(C(=O)O)n1Cc1ccc(-c2ccccc2S(=O)(=O)NC(=O)NCc2ccccc2Cl)cc1 | 134
22 | COc1ccccc1C(=O)CN1C(=O)C(NC(=O)Nc2cccc(-c3nnn[nH]3)c2)N=C(c2ccccc2F)c2cccc(C)c21 (centres undefined) | 194 to 195
23 | CN(C)C=Nc1c(Cl)cc(N=Cc2cccc(Br)c2)cc1Cl | 136 to 138
24 | CCCCCN1CCN(O)C1=O | 60 to 61
25 | ClCc1coc(-c2sccc2Cl)n1 | 84 to 85

Row | SMILES | melting point [°C]
26 | O=C(O)c1ccc(-c2nc(-c3ccc(C(F)(F)F)cc3)no2)cc1 | 293 to 294
27 | CCOC(=O)c1sc(S(C)(=O)=O)c2c1CCc1c(Br)nn(C)c1-2 | 195 to 196
28 | O=C(O)COc1cccc(C=Cc2nc(-c3ccccc3)c(-c3ccccc3)o2)c1 | 213 to 215
29 | O=c1[nH]c2ccccc2c(=O)c2cc(Cl)ccc12 | 290 to 295
30 | COC(=O)c1cc2c([nH]c3ccccc32)s1 | 200 to 201
31 | COc1cc(Cl)cc(C)c1Nc1nc2c(Cl)ccc(C(O)(C(C)(C)C)C(C)(C)C)c2n1C | 246 to 248
32 | CCOCc1cc(COc2cc(CC)nc(C)c2OC)ccc1-c1ccccc1S(=O)(=O)Nc1noc(C)c1C | 64 to 72
33 | CC(C)N1C(=O)NC(NC2CC2)NC1=O | 237 to 239
34 | C=CCC1(C(C)(C)C(=O)OCC)C(=O)NC(=O)NC1=O | 112 to 114
35 | CS(=O)c1c(C#N)nn(-c2ccc(C(F)(F)F)cc2Cl)c1N (centres undefined) | 146 to 147
36 | CCOC(=O)C(C#N)=NOS(C)(=O)=O | 79 to 83
37 | c1ccc(-c2nc3n(c2-c2ccccn2)CCS3)nc1 | 142 to 143
38 | CN1C(=O)C(F)N=C(c2ccccc2)c2cc(Cl)ccc21 (centres undefined) | 145 to 147
39 | COc1c(Br)ccc2oc(C=O)c(C)c12 | 81 to 82
40 | CCOC(=O)CNc1c(N)c(=O)c1=O | 231 to 233
41 | COCOc1c(C(C)(C)C)cc(C=[N+]([O-])C(C)(C)C)cc1C(C)(C)C | 202 to 206
42 | CCC1CC2C3CCC(C(C)CC(C)C(=O)O)C3(C)CCC2C2(C)CCC(O)CC12 (centres undefined) | 138
43 | N#Cc1cc2c(c(-c3ccccc3Cl)c1)OC(CN)C2 (centres undefined) | 173 to 175
44 | COC1(c2ccccc2)CCc2c(C)c(O)c(C)c(C)c2O1 (centres undefined) | 190 to 192
45 | Cc1cc(C)c(C(O)c2cc(-n3ccnc3)ccc2Cl)c(C)c1 (centres undefined) | 206 to 207
46 | O=C1NCC=NN1c1cc(Cl)c(Sc2ccc(Cl)cc2)c(Cl)c1 | 224 to 225
47 | O=C(O)Cc1ccc(COc2cccc(-c3c(-c4ccccc4)cnc4c(C(F)(F)F)cccc34)c2)cc1 | 122
48 | NC(=NO)c1ccc(-c2n[nH]c3c2Cc2ccccc2-3)cc1 | > 300
49 | Cc1nnc2n1-c1sc(CCc3ccc(CC(C)C)cc3)cc1C(c1ccccc1Cl)=NC2c1ccccc1 (centres undefined) | 170 to 172
50 | CON=C(C(C)=NN)c1ccccc1 | 132

Further lines, results first:

Row | melting point [°C] | SMILES
51 | 64 | COc1ccc(C)cc1C(CCO)c1ccccc1 (centres undefined)
52 | 180 to 181 | CN1CCN(C(=O)c2c(N3CCN(C(=O)c4ccco4)CC3)n(-c3ccccc3)c3ccccc23)CC1
53 | 242 to 245 | CC1(C)NC(=O)N(CC(CS(=O)(=O)c2ccc(-c3ccc(Cl)cc3)cc2)C(=O)O)C1=O (centres undefined)
54 | 121 to 125 | O=C(NCC12CC3CC(CC(C3)C1)C2)c1cc(-c2cccnc2N2CCC[C@H]2C(=O)O)ccc1Cl
55 | 140 to 141 | Cc1oc(-c2ccccc2)nc1CCOc1cccc(OC(C)(C)C(=O)O)c1
56 | 94 to 95 | O=C1NC2c3ccccc3CC2O1 (centres undefined)
57 | 79 to 81 | CCCCCCOc1ccc(CCCCCCCCC(=O)O)cc1
58 | 198 to 200 | CCOC(=O)COc1ccc(N)c(C)c1
59 | 190 | CCCCc1nc(=O)n2nc(-c3ccco3)cc2[nH]1
60 | 195 to 197 | COc1ccc(C(=O)Nc2ccccc2)cc1NCc1cccs1
61 | > 300 | Cc1nn(-c2ccccn2)c2[nH]c3ccc(C(=O)O)cc3c(=O)c12
62 | 134 to 138 | Cc1c(C)c(N2CCN(c3ccc(CN(C)C)cc3)CC2)c(C)c2c1OC(C)(C)C2
63 | 188 to 190 | COc1nc(C)cnc1NS(=O)(=O)c1ccccc1-c1ccc(OC(C)C(=O)O)cc1 (centres undefined)
64 | 97 to 99 | COc1nc(C)c(C)nc1N(C)C(=O)N1CCN(c2cc(Cl)cc(Cl)c2)CC1
65 | 152 to 153 | Cc1nc(-n2cnn(Cc3ccc(F)cc3)c2=O)sc1C(=O)NCc1ncco1
66 | 51 to 54 | COc1ccc(N(CCN2CCC(C(=O)c3ccc(F)cc3)CC2)C(=O)c2ccc([N+](=O)[O-])cc2)c(OC)c1
67 | 277 to 278 | Cc1cccc(C)c1CNc1cc(C(=O)NN)cc2c1nc(C)n2C
68 | 58 to 60 | CC(=O)c1cccc(-c2ccc(OC[C@H](O)CCc3cccnc3)cc2)c1
69 | 95 to 99 | NC1=NC(c2ccc(OC(F)(F)F)cc2)(c2cccc(-c3cccnc3F)c2)C2=NCCCCCN12 (centres undefined)
70 | 152 to 155 | Cc1ccc(S(=O)(=O)n2cc(Br)c(C)c2C=O)cc1
71 | 130 to 131 | CCCOc1ccccc1-c1nc2cc3c(cc2c(=O)[nH]1)NCN3Cc1ccc(OC)cc1
72 | 211 to 213 | COCCOc1cc2c(cc1-c1ccccc1F)NC(=O)CC(c1cccc(C#N)c1)=N2
73 | 215 to 216 | O=C(O)CN1C(=O)C(NC(=O)Nc2cccc3ccccc23)CCc2ccccc21 (centres undefined)
74 | 103 to 106 | CC(C)c1ccc2c(c1)C(=O)N(C)C(c1ccc(C(C)(C)C)cc1)C2 (centres undefined)
75 | 50 to 52 | CC(C)(C)OC(=O)NCCCc1ccccc1OCc1ccccc1

Row | melting point [°C] | SMILES
76 | 106 to 110 | COc1ccc(CNc2cc[nH]n2)cc1OC1CCCC1
77 | 187 to 189 | N#Cc1ccc(OCCCCOc2ccc(-c3cc4ccc(C#N)cc4o3)cc2)cc1
78 | 141 to 142 | Cc1oc(-c2ccccc2)nc1COc1ccc2c(c1)CCC(CO)=C2
79 | 150 to 152 | CCCCOc1nc(N)c2[nH]c(=O)n(CCCCNS(=O)(=O)c3ccc(CCC(=O)OC)cc3)c2n1
80 | 165 to 167 | O=C(O)C1CCCCC1(O)C(=O)c1ccccc1 (centres undefined)
81 | 37 to 40 | COP(=O)(CC(=O)COc1ccc(Cl)cn1)OC
82 | 102 to 118 | Cc1c(C)c2c(c(C)c1O)C(O)CC(C)(COc1ccc(CC3SC(=O)NC3=O)cc1)O2 (centres undefined)
83 | 199 to 201 | CN1CCN(C(=O)Cn2nc(-c3ccccc3O)nc2-c2ccccc2O)CC1
84 | 243 to 245 | CC1CN(C)c2c(Cl)ccc3c(=O)c(C(=O)O)cn1c23 (centres undefined)
85 | 57 to 58.5 | CCOC(=O)C(Oc1ccc2ccccc2c1)C(=O)OCC
86 | 142 to 144 | CCN(CC)c1ccc2c(c1)OC(=O)C(C)(C#Cc1ccccc1)C2 (centres undefined)
87 | 116 to 118 | COc1ccc(C2(C#Cc3cccc(-c4noc(C)n4)c3)CCCC(=O)C2)cc1OC1CCCC1 (centres undefined)
88 | 46 to 54 | CC(CN1C(=O)C2(COc3cc4c(cc32)CCO4)c2ccccc21)OCc1ccccn1 (centres undefined)
89 | 205 | COc1ccc(-c2c(Cl)ncn2-c2ccc(S(C)(=O)=O)cc2)cc1
90 | 166 to 167 | Fc1cccc(NCc2nnc(-c3ccc4c(c3)CCO4)o2)c1
91 | 169 to 170 | CCCOc1ccc(C2CCCN3CCS(=O)(=O)N=C23)cc1 (centres undefined)
92 | 85 to 87 | O=C(CCl)N1CCC(Cc2ccc(F)cc2)CC1
93 | 236 to 238 | O=C(Nc1ccc(Oc2ccc(C(=O)N3CCC(C(=O)N4CCN(Cc5ccc6c(c5)OCO6)CC4)CC3)cc2)nc1)c1ccc(Cl)c(Cl)c1
94 | 169 to 170 | Nc1nc(Cl)c2ncn(CC3CCOCO3)c2n1 (centres undefined)
95 | 98 to 100 | C[Si](C)(C)CCC1=C(O)C(=O)c2ccccc2C1=O
96 | 275 | CCNC(=N)N1CCc2[nH]cnc2C1CC (centres undefined)
97 | 72 to 73 | CCOC(=O)COc1ccc(N(C)Cc2ccc(-c3ccc(C(F)(F)F)cc3)nc2C)cc1CCCOC
98 | 175 | CCN1CCc2ccc(Nc3ncc(Cl)c(Nc4ccccc4S(=O)(=O)NC)n3)cc2CC1
99 | 130 to 131 | CCCSC(=S)N1Cc2[nH]c3ccccc3c2CC1CO (centres undefined)
